Reference: ChEMBL document CHEMBL4043168, “The design and SAR of a novel series of 2-aminopyridine based LRRK2 inhibitors” (Bioorg Med Chem Lett, 2017)

Columns and labels:
[1] = Inhibition of GCK conserved Lys1 (DTVTSELAAVKIVK) in human PBMC at 1 uM
[2] = Intrinsic clearance in rat liver microsomes; format: ADME, microsome; conditions: read-out: CLH (converted)
[3] = target: Ribosomal protein S6 kinase alpha-2 (Homo sapiens) (UniProt Q15349); experiment: Inhibition of RSK3 domain1 conserved Lys2 (DLKPENILLDEEGHIKITDFGLSK) in human PBMC at 0.1 uM
[4] = target: Serine/threonine-protein kinase WNK2 (Homo sapiens) (UniProt Q9Y3S1); experiment: Inhibition of Wnk2 activation Loop (IGDLGLATLKR) in human PBMC at 1 uM
[5] = target: RAC-beta serine/threonine-protein kinase (Homo sapiens) (UniProt P31751); experiment: Inhibition of AKT2 labeling at ATP binding site (GTFGKVILVR) in human PBMC at 1 uM
[6] = target: T1, Mitogen-activated protein kinase kinase kinase 6 (Homo sapiens) (UniProt O95382); experiment: Inhibition of MAP3K6 conserved Lys1 (IAIKEIPER) in human PBMC at 1 uM
T1 sequence (whole entry): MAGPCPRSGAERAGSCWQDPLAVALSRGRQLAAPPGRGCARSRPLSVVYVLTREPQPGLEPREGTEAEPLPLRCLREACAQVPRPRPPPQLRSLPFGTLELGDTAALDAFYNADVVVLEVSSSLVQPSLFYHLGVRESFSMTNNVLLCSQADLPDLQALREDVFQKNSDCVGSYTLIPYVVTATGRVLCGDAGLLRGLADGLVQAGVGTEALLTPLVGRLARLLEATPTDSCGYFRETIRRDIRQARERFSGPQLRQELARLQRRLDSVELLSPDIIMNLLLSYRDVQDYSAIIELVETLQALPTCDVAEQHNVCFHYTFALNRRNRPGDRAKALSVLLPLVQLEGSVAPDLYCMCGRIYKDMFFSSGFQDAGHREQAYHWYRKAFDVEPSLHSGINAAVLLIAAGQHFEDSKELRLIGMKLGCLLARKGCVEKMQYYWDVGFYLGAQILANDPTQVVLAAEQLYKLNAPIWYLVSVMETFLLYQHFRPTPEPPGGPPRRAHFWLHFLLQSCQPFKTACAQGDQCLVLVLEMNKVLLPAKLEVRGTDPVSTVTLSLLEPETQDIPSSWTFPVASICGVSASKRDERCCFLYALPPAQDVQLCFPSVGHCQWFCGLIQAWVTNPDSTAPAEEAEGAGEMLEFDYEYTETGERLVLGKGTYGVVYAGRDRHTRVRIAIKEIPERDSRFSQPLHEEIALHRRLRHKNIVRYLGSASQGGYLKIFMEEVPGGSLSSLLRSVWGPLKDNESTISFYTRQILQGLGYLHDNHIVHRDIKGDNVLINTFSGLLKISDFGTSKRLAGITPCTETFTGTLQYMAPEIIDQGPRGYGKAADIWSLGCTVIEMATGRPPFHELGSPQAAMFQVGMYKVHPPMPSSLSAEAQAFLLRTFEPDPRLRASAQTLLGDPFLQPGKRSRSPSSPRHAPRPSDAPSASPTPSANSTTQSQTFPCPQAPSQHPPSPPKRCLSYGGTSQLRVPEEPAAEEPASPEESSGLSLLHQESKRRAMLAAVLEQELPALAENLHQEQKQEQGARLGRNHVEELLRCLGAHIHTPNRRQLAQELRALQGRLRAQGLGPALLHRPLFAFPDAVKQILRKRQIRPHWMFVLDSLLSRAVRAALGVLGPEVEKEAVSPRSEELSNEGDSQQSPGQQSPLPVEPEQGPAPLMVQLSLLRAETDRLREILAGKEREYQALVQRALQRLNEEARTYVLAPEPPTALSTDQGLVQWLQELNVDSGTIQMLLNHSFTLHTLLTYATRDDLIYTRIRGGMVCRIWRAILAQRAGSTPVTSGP

[7] = target: T2, Mitogen-activated protein kinase kinase kinase 5 (Homo sapiens) (UniProt Q99683); experiment: Inhibition of MAP3K5 conserved Lys1 (IAIKEIPER) in human PBMC at 0.1 uM
T2 sequence (whole entry): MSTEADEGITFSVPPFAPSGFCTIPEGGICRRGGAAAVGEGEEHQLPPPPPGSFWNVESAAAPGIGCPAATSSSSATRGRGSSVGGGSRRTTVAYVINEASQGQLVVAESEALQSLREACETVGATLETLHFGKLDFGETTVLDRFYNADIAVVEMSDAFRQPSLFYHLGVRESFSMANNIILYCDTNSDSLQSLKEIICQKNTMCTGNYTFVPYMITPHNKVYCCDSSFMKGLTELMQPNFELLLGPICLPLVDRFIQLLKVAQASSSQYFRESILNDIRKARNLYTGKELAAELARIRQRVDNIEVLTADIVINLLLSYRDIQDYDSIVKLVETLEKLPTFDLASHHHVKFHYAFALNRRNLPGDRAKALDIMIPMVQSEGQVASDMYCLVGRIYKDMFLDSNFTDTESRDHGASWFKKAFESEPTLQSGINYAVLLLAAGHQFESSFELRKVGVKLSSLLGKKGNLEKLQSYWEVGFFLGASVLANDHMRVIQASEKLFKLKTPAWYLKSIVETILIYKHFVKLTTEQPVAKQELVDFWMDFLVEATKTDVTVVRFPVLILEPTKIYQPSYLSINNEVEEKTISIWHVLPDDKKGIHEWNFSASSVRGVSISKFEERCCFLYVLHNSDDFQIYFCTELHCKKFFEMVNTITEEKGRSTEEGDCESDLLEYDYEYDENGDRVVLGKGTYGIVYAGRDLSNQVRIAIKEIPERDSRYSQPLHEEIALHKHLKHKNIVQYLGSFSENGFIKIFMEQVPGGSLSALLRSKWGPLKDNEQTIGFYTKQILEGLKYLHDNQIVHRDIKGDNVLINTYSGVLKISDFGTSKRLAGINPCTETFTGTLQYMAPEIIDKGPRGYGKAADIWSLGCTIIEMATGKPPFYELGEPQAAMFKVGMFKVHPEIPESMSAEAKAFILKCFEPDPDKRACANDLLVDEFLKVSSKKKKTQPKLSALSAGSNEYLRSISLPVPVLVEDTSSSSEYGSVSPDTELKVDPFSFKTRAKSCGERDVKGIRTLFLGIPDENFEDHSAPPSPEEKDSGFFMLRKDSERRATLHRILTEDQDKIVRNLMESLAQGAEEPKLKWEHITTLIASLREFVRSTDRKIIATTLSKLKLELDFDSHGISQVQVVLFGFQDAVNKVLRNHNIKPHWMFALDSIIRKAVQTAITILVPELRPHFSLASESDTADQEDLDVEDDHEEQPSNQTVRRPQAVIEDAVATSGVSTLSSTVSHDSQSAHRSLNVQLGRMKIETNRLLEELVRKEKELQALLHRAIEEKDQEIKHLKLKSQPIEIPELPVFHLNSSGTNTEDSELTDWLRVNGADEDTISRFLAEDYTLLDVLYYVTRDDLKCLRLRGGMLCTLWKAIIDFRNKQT

Ribosomal protein S6 kinase alpha-2 (Homo sapiens), sequence (Q15349 whole entry, the tested form may be a part): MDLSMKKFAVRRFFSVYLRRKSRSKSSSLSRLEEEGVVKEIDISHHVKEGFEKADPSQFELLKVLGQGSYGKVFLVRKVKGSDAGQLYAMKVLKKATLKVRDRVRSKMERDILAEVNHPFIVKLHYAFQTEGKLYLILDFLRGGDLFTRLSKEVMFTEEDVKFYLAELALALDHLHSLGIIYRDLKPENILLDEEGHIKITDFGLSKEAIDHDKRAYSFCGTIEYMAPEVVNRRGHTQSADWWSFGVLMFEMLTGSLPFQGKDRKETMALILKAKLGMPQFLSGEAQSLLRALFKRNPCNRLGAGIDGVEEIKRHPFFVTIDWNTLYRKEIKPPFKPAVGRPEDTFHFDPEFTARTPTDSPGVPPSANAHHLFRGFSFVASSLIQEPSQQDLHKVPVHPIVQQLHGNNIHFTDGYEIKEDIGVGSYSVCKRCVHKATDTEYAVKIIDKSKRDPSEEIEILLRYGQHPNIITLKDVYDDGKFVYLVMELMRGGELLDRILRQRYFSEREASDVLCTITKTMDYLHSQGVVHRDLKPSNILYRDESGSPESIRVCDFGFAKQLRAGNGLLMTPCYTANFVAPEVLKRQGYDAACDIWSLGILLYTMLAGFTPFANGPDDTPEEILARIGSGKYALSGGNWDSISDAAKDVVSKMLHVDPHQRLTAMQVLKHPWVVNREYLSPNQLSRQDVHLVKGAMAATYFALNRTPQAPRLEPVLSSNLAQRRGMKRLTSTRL
Serine/threonine-protein kinase WNK2 (Homo sapiens), sequence (Q9Y3S1 whole entry): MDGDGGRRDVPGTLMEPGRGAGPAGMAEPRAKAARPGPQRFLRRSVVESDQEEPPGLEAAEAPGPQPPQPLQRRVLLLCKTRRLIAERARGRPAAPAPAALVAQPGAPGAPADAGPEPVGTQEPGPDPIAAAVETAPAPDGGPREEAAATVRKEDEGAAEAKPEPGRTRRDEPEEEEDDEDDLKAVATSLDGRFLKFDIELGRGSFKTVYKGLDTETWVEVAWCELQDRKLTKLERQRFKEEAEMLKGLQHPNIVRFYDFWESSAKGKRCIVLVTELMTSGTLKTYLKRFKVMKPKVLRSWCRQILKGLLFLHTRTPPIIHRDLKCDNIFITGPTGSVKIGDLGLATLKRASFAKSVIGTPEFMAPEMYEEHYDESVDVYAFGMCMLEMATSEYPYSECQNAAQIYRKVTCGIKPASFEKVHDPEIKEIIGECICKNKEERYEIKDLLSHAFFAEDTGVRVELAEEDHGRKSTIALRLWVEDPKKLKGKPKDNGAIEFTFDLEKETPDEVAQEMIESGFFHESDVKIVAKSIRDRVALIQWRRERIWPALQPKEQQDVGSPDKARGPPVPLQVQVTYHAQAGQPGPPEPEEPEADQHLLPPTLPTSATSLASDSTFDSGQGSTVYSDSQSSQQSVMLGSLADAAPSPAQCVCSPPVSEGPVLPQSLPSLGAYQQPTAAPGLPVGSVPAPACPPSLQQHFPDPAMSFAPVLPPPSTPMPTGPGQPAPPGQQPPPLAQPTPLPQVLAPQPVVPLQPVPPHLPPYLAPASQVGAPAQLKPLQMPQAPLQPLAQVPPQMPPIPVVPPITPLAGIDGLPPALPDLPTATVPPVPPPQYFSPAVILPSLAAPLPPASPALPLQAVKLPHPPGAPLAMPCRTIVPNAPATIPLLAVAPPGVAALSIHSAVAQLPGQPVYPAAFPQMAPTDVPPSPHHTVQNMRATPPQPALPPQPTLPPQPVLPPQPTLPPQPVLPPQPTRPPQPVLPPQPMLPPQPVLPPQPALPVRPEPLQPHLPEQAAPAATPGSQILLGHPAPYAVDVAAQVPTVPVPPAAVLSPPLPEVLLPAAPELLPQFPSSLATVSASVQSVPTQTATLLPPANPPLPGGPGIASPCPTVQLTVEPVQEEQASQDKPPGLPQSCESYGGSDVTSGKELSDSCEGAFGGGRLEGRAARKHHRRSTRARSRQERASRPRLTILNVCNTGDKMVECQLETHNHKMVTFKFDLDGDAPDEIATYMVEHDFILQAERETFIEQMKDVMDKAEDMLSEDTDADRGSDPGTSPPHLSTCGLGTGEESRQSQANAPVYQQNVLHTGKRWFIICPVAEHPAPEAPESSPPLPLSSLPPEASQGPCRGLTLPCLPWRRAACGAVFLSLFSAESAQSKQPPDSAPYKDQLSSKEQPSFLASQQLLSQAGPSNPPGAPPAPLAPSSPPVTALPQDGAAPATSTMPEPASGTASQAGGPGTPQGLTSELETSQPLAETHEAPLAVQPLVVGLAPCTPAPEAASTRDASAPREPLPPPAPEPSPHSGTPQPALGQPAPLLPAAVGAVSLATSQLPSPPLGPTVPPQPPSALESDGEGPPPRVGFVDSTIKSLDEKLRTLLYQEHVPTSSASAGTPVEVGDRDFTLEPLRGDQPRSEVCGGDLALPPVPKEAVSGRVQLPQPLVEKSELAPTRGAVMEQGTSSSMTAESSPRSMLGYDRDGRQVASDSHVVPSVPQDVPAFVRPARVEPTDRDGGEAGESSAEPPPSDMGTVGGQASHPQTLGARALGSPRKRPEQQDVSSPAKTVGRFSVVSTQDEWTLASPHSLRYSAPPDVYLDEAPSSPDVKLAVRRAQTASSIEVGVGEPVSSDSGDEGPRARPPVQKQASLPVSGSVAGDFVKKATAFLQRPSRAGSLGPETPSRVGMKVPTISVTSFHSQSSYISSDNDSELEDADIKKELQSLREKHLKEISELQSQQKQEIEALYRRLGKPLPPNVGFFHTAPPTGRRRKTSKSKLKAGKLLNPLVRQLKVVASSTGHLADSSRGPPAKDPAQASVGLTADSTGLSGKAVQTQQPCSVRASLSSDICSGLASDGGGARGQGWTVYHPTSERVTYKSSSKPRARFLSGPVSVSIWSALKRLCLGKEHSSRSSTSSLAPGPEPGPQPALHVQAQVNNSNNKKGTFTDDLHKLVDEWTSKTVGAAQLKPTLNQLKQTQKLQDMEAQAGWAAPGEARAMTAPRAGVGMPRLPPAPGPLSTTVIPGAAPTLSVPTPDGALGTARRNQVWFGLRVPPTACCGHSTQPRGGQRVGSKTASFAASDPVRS
RAC-beta serine/threonine-protein kinase (Homo sapiens), sequence (P31751 whole entry): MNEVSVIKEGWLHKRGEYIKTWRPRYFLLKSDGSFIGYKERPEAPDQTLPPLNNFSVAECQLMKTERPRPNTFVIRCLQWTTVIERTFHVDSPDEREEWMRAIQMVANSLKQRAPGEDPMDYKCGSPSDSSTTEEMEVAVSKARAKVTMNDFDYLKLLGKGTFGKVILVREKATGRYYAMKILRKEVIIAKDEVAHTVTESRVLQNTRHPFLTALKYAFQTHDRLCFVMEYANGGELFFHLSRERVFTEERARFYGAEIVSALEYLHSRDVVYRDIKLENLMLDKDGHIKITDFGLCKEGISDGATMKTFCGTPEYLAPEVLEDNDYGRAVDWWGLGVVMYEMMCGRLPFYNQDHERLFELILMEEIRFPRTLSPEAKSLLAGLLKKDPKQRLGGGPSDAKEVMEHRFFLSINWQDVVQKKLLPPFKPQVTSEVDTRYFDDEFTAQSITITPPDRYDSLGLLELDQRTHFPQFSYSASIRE

Question: For `CC(C)n1cc(-c2cc(-c3ccc(CN4CCOCC4)cc3)cnc2N)nn1`, which inhibition [1] is on record?
Answer: 0.5%

Question: What about the CLint scaled [2] of the same compound?
Answer: 157 mL/min/kg

Question: What about the inhibition [3] of the same compound?
Answer: 13%

Question: And the inhibition [4]?
Answer: 21.9%

Question: And the inhibition [5]?
Answer: 20.5%

Question: And the inhibition [6]?
Answer: -3.3%

Question: What about the inhibition [7] of the same compound?
Answer: -0.5%
